Like-named read-outs stand apart in the source and are kept apart here.
Columns and labels:
[1] = tested on: stool odor compounds; conditions: 3 weeks; for Alcohols / Aldehydes / Carboxylic acids / Esters / Heterocycles / Indoles / Ketones / Phenols / Thiols/Sulfides: dog stool, area under chromatogram peak
Description: (§1) An experiment was conducted to characterize the effects of zinc acetate on stool odor compounds in dogs. To a control food, which was a dry food composed of kibbles containing a base level of 150 ppm zinc in the form of zinc acetate, various amounts of zinc in the form of zinc acetate were added as a coating on the kibbles. This was done by hand coating (sprinkling) fine zinc acetate powder on the kibble in a rotating drum in a two-step coating process after all other topical ingredients had been added by in-line enrobing. Ten dogs were fed control food with no added zinc, ten dogs were fed control food with 400 ppm zinc added, ten dogs were fed control food with 600 ppm zinc added, and ten dogs were fed control food with 900 ppm zinc added. The dogs were fed one of these diets for three weeks. At the end of three weeks, stool samples were collected and analyzed by putting a standard amount of stool in a glass container and incubating a solid phase microextraction fiber in the headspace. Volatiles bound to the fiber were eluted onto a gas chromatograph for analysis. The compounds were identified using a […].
(§2) The numbers indicate relative differences as measured by the area under the peak in a chromatogram.

[2] = tested on: flatulence; conditions: dogs, literature report; cited from earlier work
[3] = tested on: stool odor compounds; conditions: one month; for Alcohols / Aldehydes / Carboxylic acids / Esters / Heterocycles / Indoles / Ketones / Phenols / Thiols/Sulfides: cat stool, area under chromatogram peak
Description: as §1
An experiment was conducted to characterize the effects of zinc acetate on stool odor compounds in cats. To a control food, which was a dry food composed of kibbles containing a base level of 160 ppm zinc in the form of zinc acetate, various amounts of zinc were added in the form of zinc acetate as in Example 1. Eight cats were fed control food with no added zinc, eight cats were fed control food with 860 ppm zinc acetate added, seven cats were fed control food with 1200 ppm zinc acetate added, and seven cats were fed control food with 1800 ppm zinc acetate added. The cats were fed one of these diets for one month. At the end of the month, stool samples were collected and analyzed as described in Example 1.
as §2

[4] = 400 ppm added zinc on control food
[5] = 600 ppm added zinc on control food
[6] = 900 ppm added zinc on control food
[7] = 860 ppm added zinc on control food
[8] = 1200 ppm added zinc on control food
[9] = 1800 ppm added zinc on control food

Question: Which Alcohols [1, 4] does the source give for CC(=O)[O-].CC(=O)[O-].[Zn+2] [zinc acetate] here?
Answer: 17.3 ± 12.5 ×10^5

Question: And the Aldehydes [1, 4]?
Answer: 0.45 ± 0.3 ×10^3

Question: What about the Carboxylic acids [1, 4] of the same compound?
Answer: 3.79 ± 3.55 ×10^4

Question: And the Esters [1, 4]?
Answer: 34.3 ± 34.0 ×10^5

Question: And the Heterocycles [1, 4]?
Answer: 0.94 ± 0.37 ×10^4

Question: What about the Indoles [1, 4] of the same compound?
Answer: 2.64 ± 2.19 ×10^4

Question: And the Ketones [1, 4]?
Answer: 179 ± 0.89 ×10^6

Question: And the Phenols [1, 4]?
Answer: 9.62 ± 6.0 ×10^4

Question: And the Thiols/Sulfides [1, 4]?
Answer: 8.69 ± 6.16 ×10^4

Question: And the Alcohols [1, 5]?
Answer: 12.3 ± 0.9 ×10^5

Question: What about the Aldehydes [1, 5] of the same compound?
Answer: 0.56 ± 0.51 ×10^3

Question: And the Carboxylic acids [1, 5]?
Answer: 22.7 ± 32.2 ×10^4

Question: What about the Esters [1, 5] of the same compound?
Answer: 34.1 ± 34.4 ×10^5

Question: And the Heterocycles [1, 5]?
Answer: 1.19 ± 0.54 ×10^4

Question: And the Indoles [1, 5]?
Answer: 2.0 ± 0.86 ×10^4

Question: And the Ketones [1, 5]?
Answer: 201 ± 66.5 ×10^6

Question: And the Phenols [1, 5]?
Answer: 9.17 ± 5.64 ×10^4

Question: What about the Thiols/Sulfides [1, 5] of the same compound?
Answer: 5.14 ± 2.4 ×10^4

Question: And the Alcohols [1, 6]?
Answer: 23.4 ± 14.3 ×10^5

Question: What about the Aldehydes [1, 6] of the same compound?
Answer: 1.09 ± 1.29 ×10^3

Question: And the Carboxylic acids [1, 6]?
Answer: 27.2 ± 21.2 ×10^4

Question: And the Esters [1, 6]?
Answer: 32.6 ± 0.9 ×10^5

Question: What about the Heterocycles [1, 6] of the same compound?
Answer: 1.13 ± 0.49 ×10^4

Question: And the Indoles [1, 6]?
Answer: 1.78 ± 2.45 ×10^4

Question: What about the Ketones [1, 6] of the same compound?
Answer: 160 ± 63.1 ×10^6

Question: What about the Phenols [1, 6] of the same compound?
Answer: 4.08 ± 3.58 ×10^4

Question: What about the Thiols/Sulfides [1, 6] of the same compound?
Answer: 4.91 ± 1.3 ×10^4

Question: What about the “Effect of addition of zinc to the food on stool odor compound levels (in words)” value ([1]; dogs, 400-900 ppm added zinc vs control food) of the same compound?
Answer: decreased levels of phenols, thiols and sulfides and indoles

Question: And the “number of flatulent episodes” value [2]?
Answer: decreased

Question: And the odor of gas [2]?
Answer: decreased

Question: What about the total gas production [2] of the same compound?
Answer: decreased

Question: What about the Alcohols [3, 7] of the same compound?
Answer: 13.2 ± 27 ×10^4

Question: What about the Aldehydes [3, 7] of the same compound?
Answer: 5.6 ± 3.6 ×10^4

Question: What about the Carboxylic acids [3, 7] of the same compound?
Answer: 317 ± 160 ×10^4

Question: What about the Esters [3, 7] of the same compound?
Answer: 78.4 ± 22.9 ×10^4

Question: And the Heterocycles [3, 7]?
Answer: 0.62 ± 0.13 ×10^4

Question: And the Indoles [3, 7]?
Answer: 0.39 ± 0.3 ×10^4

Question: And the Ketones [3, 7]?
Answer: 25.6 ± 8.14 ×10^4

Question: What about the Phenols [3, 7] of the same compound?
Answer: 10.3 ± 4.3 ×10^4

Question: And the Thiols/Sulfides [3, 7]?
Answer: 6.2 ± 2.3 ×10^4

Question: What about the Alcohols [3, 8] of the same compound?
Answer: 6.87 ± 10.8 ×10^4

Question: What about the Aldehydes [3, 8] of the same compound?
Answer: 3.6 ± 1.7 ×10^4

Question: What about the Carboxylic acids [3, 8] of the same compound?
Answer: 225 ± 78.1 ×10^4

Question: What about the Esters [3, 8] of the same compound?
Answer: 76.9 ± 47.5 ×10^4

Question: What about the Heterocycles [3, 8] of the same compound?
Answer: 0.62 ± 0.22 ×10^4

Question: And the Indoles [3, 8]?
Answer: 0.88 ± 0.62 ×10^4

Question: What about the Ketones [3, 8] of the same compound?
Answer: 60.7 ± 38.1 ×10^4

Question: What about the Phenols [3, 8] of the same compound?
Answer: 12.6 ± 4.7 ×10^4

Question: What about the Thiols/Sulfides [3, 8] of the same compound?
Answer: 7.7 ± 3.4 ×10^4

Question: And the Alcohols [3, 9]?
Answer: 15.1 ± 23.3 ×10^4

Question: What about the Aldehydes [3, 9] of the same compound?
Answer: 1.9 ± 1.6 ×10^4

Question: What about the Carboxylic acids [3, 9] of the same compound?
Answer: 146 ± 144 ×10^4

Question: And the Esters [3, 9]?
Answer: 28.7 ± 1.8 ×10^4

Question: What about the Heterocycles [3, 9] of the same compound?
Answer: 0.46 ± 0.17 ×10^4

Question: And the Indoles [3, 9]?
Answer: 2.3 ± 1.5 ×10^4

Question: And the Ketones [3, 9]?
Answer: 42.2 ± 26.2 ×10^4

Question: What about the Phenols [3, 9] of the same compound?
Answer: 7.2 ± 2.7 ×10^4

Question: And the Thiols/Sulfides [3, 9]?
Answer: 6.8 ± 3.9 ×10^4

Question: And the “Effect of addition of zinc to the food on stool odor compound levels (in words)” value ([3]; cats, 860-1800 ppm added zinc vs control food)?
Answer: decreased stool levels of heterocycles, indoles, aldehydes and phenols
